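Growth conditions: 96-well plates. Treatment: test compound, 48 hours, 5 concentrations. Analysis: linear interpolation between bracketing concentrations; unreached endpoints set to highest concentration. At the GI50, growth is halved. TGI: total growth inhibition.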
Legend:
Experiment in all cases: NCI-60 cell line screen, 48 h
KM12 colon = test system: KM12 colon
K-562 leukemia = test system: K-562 leukemia
SNB-75 CNS = test system: SNB-75 CNS
IGROV1 ovarian = test system: IGROV1 ovarian
SF-295 CNS = test system: SF-295 CNS
A549 NSCLC = test system: A549 NSCLC
RPMI-8226 leukemia = test system: RPMI-8226 leukemia
MCF7 breast = test system: MCF7 breast
OVCAR-5 ovarian = test system: OVCAR-5 ovarian
SNB-19 CNS = test system: SNB-19 CNS

Question: Which TGI (KM12 colon) does the source give for `CCC1C(C)c2c([nH]c3ccccc23)C2C(=O)N(c3ccccc3)C(=O)C21` (centres undefined) here?
Answer: 32.1 µM

Question: And the TGI (K-562 leukemia)?
Answer: 44.3 µM

Question: And the TGI (SNB-75 CNS)?
Answer: 39.4 µM

Question: What about the TGI (IGROV1 ovarian) of the same compound?
Answer: 22.3 µM

Question: And the TGI (SF-295 CNS)?
Answer: 32.3 µM

Question: And the TGI (A549 NSCLC)?
Answer: 48.5 µM

Question: What about the TGI (RPMI-8226 leukemia) of the same compound?
Answer: 40.9 µM

Question: For `C=C(CN1CCN(c2ccccc2OC)CC1)c1ccc(C(=O)Nc2ccccc2N)cc1`, which GI50 (MCF7 breast) is on record?
Answer: 16.7 µM

Question: What about the TGI (MCF7 breast) of the same compound?
Answer: > 50 µM

Question: What about the GI50 (KM12 colon) of the same compound?
Answer: 3.32 µM

Question: And the TGI (KM12 colon)?
Answer: 11.6 µM

Question: What about the GI50 (K-562 leukemia) of the same compound?
Answer: > 50 µM

Question: What about the TGI (K-562 leukemia) of the same compound?
Answer: > 50 µM

Question: What about the GI50 (IGROV1 ovarian) of the same compound?
Answer: 9.54 µM

Question: And the TGI (IGROV1 ovarian)?
Answer: 30.6 µM

Question: And the GI50 (SF-295 CNS)?
Answer: 4.11 µM

Question: And the TGI (SF-295 CNS)?
Answer: 15.4 µM

Question: And the GI50 (A549 NSCLC)?
Answer: 11.2 µM

Question: What about the TGI (A549 NSCLC) of the same compound?
Answer: 35.5 µM

Question: And the GI50 (OVCAR-5 ovarian)?
Answer: 7.56 µM

Question: And the TGI (OVCAR-5 ovarian)?
Answer: 22.8 µM

Question: What about the GI50 (SNB-19 CNS) of the same compound?
Answer: 12.1 µM

Question: What about the TGI (SNB-19 CNS) of the same compound?
Answer: > 50 µM

Question: What about the GI50 (RPMI-8226 leukemia) of the same compound?
Answer: 5.11 µM

Question: What about the TGI (RPMI-8226 leukemia) of the same compound?
Answer: > 50 µM

Question: How did the GI50 (MCF7 breast) turn out when `Cc1c[nH]c2c1C13CC1CN(C(=O)c1cc4cc(NC(=O)c5cc6ccccc6o5)ccc4[nH]1)C3=CC2=O` (centres undefined) was run?
Answer: > 1.17 ng/mL

Question: And the TGI (MCF7 breast)?
Answer: 11700 ng/mL

Question: What about the TGI (KM12 colon) of the same compound?
Answer: < 0.001 µM

Question: And the GI50 (K-562 leukemia)?
Answer: > 1.17 ng/mL

Question: And the GI50 (IGROV1 ovarian)?
Answer: > 1.17 ng/mL

Question: What about the TGI (IGROV1 ovarian) of the same compound?
Answer: 13.5 ng/mL

Question: What about the GI50 (SF-295 CNS) of the same compound?
Answer: > 1.17 ng/mL

Question: And the TGI (SF-295 CNS)?
Answer: < 0.001 µM

Question: What about the GI50 (A549 NSCLC) of the same compound?
Answer: > 1.17 ng/mL

Question: What about the GI50 (OVCAR-5 ovarian) of the same compound?
Answer: > 1.17 ng/mL

Question: What about the TGI (OVCAR-5 ovarian) of the same compound?
Answer: < 0.001 µM

Question: What about the TGI (SNB-19 CNS) of the same compound?
Answer: 0.00481 µM

Question: What about the GI50 (RPMI-8226 leukemia) of the same compound?
Answer: > 1.17 ng/mL

Question: Which results are given for `Cc1cccc(NC(=O)C(=O)C2C(=O)NC(=O)NC2=O)c1C`?
Answer: TGI (KM12 colon): > 100 µM; TGI (K-562 leukemia): > 100 µM; TGI (SNB-75 CNS): > 100 µM; TGI (IGROV1 ovarian): > 100 µM; TGI (SF-295 CNS): > 100 µM; TGI (A549 NSCLC): > 100 µM; TGI (OVCAR-5 ovarian): > 100 µM; TGI (SNB-19 CNS): > 100 µM; TGI (RPMI-8226 leukemia): > 100 µM

Question: Which TGI (KM12 colon) does the source give for `Cc1ccc(S(=O)(=O)N(/N=C(\N)Oc2ccc(Cl)cc2)C(=N)Oc2ccc(Cl)cc2)cc1` here?
Answer: > 100 µM

Question: And the TGI (K-562 leukemia)?
Answer: > 100 µM

Question: And the TGI (SNB-75 CNS)?
Answer: > 100 µM

Question: What about the TGI (IGROV1 ovarian) of the same compound?
Answer: > 100 µM

Question: And the TGI (SF-295 CNS)?
Answer: > 100 µM

Question: What about the TGI (A549 NSCLC) of the same compound?
Answer: > 100 µM

Question: And the TGI (OVCAR-5 ovarian)?
Answer: > 100 µM

Question: And the TGI (SNB-19 CNS)?
Answer: > 100 µM

Question: Which TGI (KM12 colon) does the source give for `OCC(O)C(O)c1nn(-c2ccccc2)c2nc3cc(Cl)c(Cl)cc3nc12` (centres undefined) here?
Answer: 81.2 µM

Question: And the TGI (K-562 leukemia)?
Answer: > 100 µM

Question: And the TGI (SNB-75 CNS)?
Answer: 52 µM

Question: And the TGI (IGROV1 ovarian)?
Answer: 90.7 µM

Question: What about the TGI (SF-295 CNS) of the same compound?
Answer: > 100 µM

Question: What about the TGI (A549 NSCLC) of the same compound?
Answer: 57.4 µM

Question: And the TGI (OVCAR-5 ovarian)?
Answer: 58.4 µM

Question: And the TGI (SNB-19 CNS)?
Answer: > 100 µM

Question: And the TGI (RPMI-8226 leukemia)?
Answer: > 100 µM

Question: Which TGI (KM12 colon) does the source give for `COc1cc([C@@H]2c3cc4c(cc3[C@@H](NC(=O)c3ccc(N)cc3)C3COC(=O)[C@@H]32)OCO4)cc(OC)c1O` (some centres undefined) here?
Answer: 13.8 µM

Question: And the TGI (K-562 leukemia)?
Answer: 37.7 µM

Question: And the TGI (SNB-75 CNS)?
Answer: 6.56 µM

Question: And the TGI (IGROV1 ovarian)?
Answer: 20.2 µM

Question: And the TGI (SF-295 CNS)?
Answer: 95.8 µM

Question: And the TGI (A549 NSCLC)?
Answer: 12.8 µM

Question: And the TGI (OVCAR-5 ovarian)?
Answer: 34.5 µM

Question: And the TGI (SNB-19 CNS)?
Answer: 17.4 µM

Question: What about the TGI (RPMI-8226 leukemia) of the same compound?
Answer: 20.2 µM

Question: What does the source list for `O=[N+]([O-])c1cccc([N+](=O)[O-])c1S(=O)(=O)c1ccccc1`?
Answer: TGI (MCF7 breast): 43.1 µM; TGI (KM12 colon): 32 µM; TGI (IGROV1 ovarian): 4.2 µM; TGI (SF-295 CNS): 31.8 µM; TGI (A549 NSCLC): 41.8 µM; TGI (OVCAR-5 ovarian): 9.18 µM; TGI (SNB-19 CNS): 35.3 µM; TGI (RPMI-8226 leukemia): 3.68 µM

Question: How did the TGI (KM12 colon) turn out when `CC#C[C@@]1(O)CCCC[C@@H]1O` was run?
Answer: > 100 µM

Question: And the TGI (K-562 leukemia)?
Answer: > 100 µM

Question: And the TGI (SNB-75 CNS)?
Answer: > 100 µM

Question: And the TGI (IGROV1 ovarian)?
Answer: > 100 µM

Question: And the TGI (SF-295 CNS)?
Answer: > 100 µM

Question: And the TGI (A549 NSCLC)?
Answer: > 100 µM

Question: And the TGI (SNB-19 CNS)?
Answer: > 100 µM

Question: What about the TGI (RPMI-8226 leukemia) of the same compound?
Answer: > 100 µM

Question: For `c1ccc2c(CNCCCCCCNCc3cccc4ccccc34)cccc2c1`, which TGI (KM12 colon) is on record?
Answer: 15.1 µM

Question: What about the TGI (K-562 leukemia) of the same compound?
Answer: 3.22 µM

Question: What about the TGI (SNB-75 CNS) of the same compound?
Answer: 6.68 µM

Question: What about the TGI (IGROV1 ovarian) of the same compound?
Answer: 30.7 µM

Question: What about the TGI (SF-295 CNS) of the same compound?
Answer: 24.8 µM

Question: And the TGI (A549 NSCLC)?
Answer: 32.3 µM

Question: What about the TGI (OVCAR-5 ovarian) of the same compound?
Answer: 29.3 µM

Question: What about the TGI (RPMI-8226 leukemia) of the same compound?
Answer: 6.79 µM

Question: What does the source list for `COc1ccc2cccc(C(=O)c3ccc(C)c4c3CCC4)c2c1`?
Answer: TGI (KM12 colon): > 100 µM; TGI (K-562 leukemia): > 100 µM; TGI (SNB-75 CNS): > 100 µM; TGI (IGROV1 ovarian): 99.2 µM; TGI (SF-295 CNS): > 100 µM; TGI (A549 NSCLC): > 100 µM; TGI (OVCAR-5 ovarian): > 100 µM; TGI (SNB-19 CNS): > 100 µM

Question: With `Cc1cnc[nH]c1=O` as the compound, how does the TGI (KM12 colon) read?
Answer: > 100 µM

Question: And the TGI (K-562 leukemia)?
Answer: > 100 µM

Question: What about the TGI (SNB-75 CNS) of the same compound?
Answer: > 100 µM

Question: And the TGI (IGROV1 ovarian)?
Answer: > 100 µM

Question: What about the TGI (SF-295 CNS) of the same compound?
Answer: > 100 µM

Question: And the TGI (A549 NSCLC)?
Answer: > 100 µM

Question: And the TGI (OVCAR-5 ovarian)?
Answer: > 100 µM

Question: What about the TGI (SNB-19 CNS) of the same compound?
Answer: > 100 µM

Question: What about the TGI (RPMI-8226 leukemia) of the same compound?
Answer: > 100 µM

Question: What does the source list for `O=C(CC(=O)N1N=C(c2ccccc2)C(N=Nc2ccc(C(=O)O)cc2)C1=O)Nc1ccc(F)cc1` (centres undefined)?
Answer: TGI (K-562 leukemia): > 100 µM; TGI (IGROV1 ovarian): 80.5 µM; TGI (SF-295 CNS): > 100 µM; TGI (A549 NSCLC): > 100 µM; TGI (OVCAR-5 ovarian): > 100 µM; TGI (SNB-19 CNS): > 100 µM; TGI (RPMI-8226 leukemia): 99 µM

Question: Which results are given for `CC(C)[C@@H]1C=C(c2ccccc2)c2ccccc2C1C(C#N)(C#N)C(C)C` (some centres undefined)?
Answer: TGI (KM12 colon): > 100 µM; TGI (K-562 leukemia): > 100 µM; TGI (SNB-75 CNS): > 100 µM; TGI (IGROV1 ovarian): > 100 µM; TGI (SF-295 CNS): > 100 µM; TGI (A549 NSCLC): > 100 µM; TGI (OVCAR-5 ovarian): > 100 µM; TGI (SNB-19 CNS): > 100 µM; TGI (RPMI-8226 leukemia): > 100 µM

Question: Which GI50 (MCF7 breast) does the source give for `Cn1c2ccccc2c(=Nc2ccccc2)c2c3ccccc3[nH]c21` here?
Answer: 0.284 µM

Question: What about the TGI (MCF7 breast) of the same compound?
Answer: 1.86 µM

Question: What about the GI50 (K-562 leukemia) of the same compound?
Answer: 1.84 µM

Question: What about the TGI (K-562 leukemia) of the same compound?
Answer: 15.7 µM

Question: And the GI50 (IGROV1 ovarian)?
Answer: 1.64 µM

Question: What about the TGI (IGROV1 ovarian) of the same compound?
Answer: > 100 µM

Question: What about the GI50 (SF-295 CNS) of the same compound?
Answer: 1.03 µM

Question: And the TGI (SF-295 CNS)?
Answer: 2.22 µM

Question: What about the GI50 (OVCAR-5 ovarian) of the same compound?
Answer: 7.6 µM

Question: What about the TGI (OVCAR-5 ovarian) of the same compound?
Answer: 59.9 µM

Question: What about the GI50 (RPMI-8226 leukemia) of the same compound?
Answer: 1.08 µM

Question: And the TGI (RPMI-8226 leukemia)?
Answer: 2.56 µM

Question: What does the source list for `NCCCCCS(=O)(=O)O`?
Answer: TGI (KM12 colon): > 100 µM; TGI (K-562 leukemia): > 100 µM; TGI (SNB-75 CNS): > 100 µM; TGI (IGROV1 ovarian): > 100 µM; TGI (A549 NSCLC): > 100 µM; TGI (OVCAR-5 ovarian): > 100 µM; TGI (SNB-19 CNS): > 100 µM

Source: PubChem BioAssay (NCI)
